Where a SMILES comes first, the peptide text is derived from it.
Legend:
Experiment in all cases: microbe, parasite or virus in culture
Format in all cases: cell-based, Escherichia coli
[1] = tested on: E. coli K-12 MG1655; conditions: for MIC of MG1655 under the pressure of the same drug, generation 20 / MIC of MG1655 under the pressure of the same drug, generation 30 / MIC of MG1655 under the pressure of the same drug, generation 40 / MIC of MG1655 under the pressure of the same drug, generation 50 / MIC of MG1655 under the pressure of the same drug, generation 60 / MIC of MG1655 under the pressure of the same drug, generation 70 / MIC of MG1655 under the pressure of the same drug, generation 80 / MIC of MG1655 under the pressure of the same drug, generation 90 / MIC of MG1655 under the pressure of the same drug, generation 100 / MIC of MG1655 under the pressure of the same drug, generation 110 / MIC of MG1655 under the pressure of the same drug, generation 120: as E2; for MIC of MG1655 under the pressure of the same drug, generation primary: broth microdilution (CLSI), primary MG1655 before passage; for MIC of MG1655 under the pressure of the same drug, generation 10: broth microdilution, line passaged in MH broth with sub-inhibitory drug, 12 h per passage, 37℃
Method: (§1) The broth microdilution method was used to measure the MIC values of antibiotics and peptides according to the Clinical and Laboratory Standards Institute guidelines. The MIC value is defined as the lowest drug concentration without visible bacteria.
Eight antibiotics and ten AMPs at the sub-inhibitory concentration were prepared. A 300-µL system, including 260 µL of MH broth, 30 µL of prepared drug, and 10 µL of bacterial culture, was used for resistance passages. After 12 h of incubation at 37℃ and 200 rpm, 10 µL of the above bacterial culture was added into the new sterile drug-containing broth. MIC values of bacterial culture were determined. The drug concentration was adjusted according to the MIC value change until the end of the 120 passages.

[2] = tested on: AMP120 (evolved MG1655); conditions: for MIC values of evolved MG1655, strain AMP120: broth microdilution, ampicillin-evolved strain
Source text: (§2) To ensure the stable resistance evolution and inheritance of MG1655 under different drugs, we randomly selected three monoclonals from the evolved strains. The final antibiotic-evolved strains were designated as AMP120, AZI120, CHL80, CIP120, DOX120, KAN80, NIT70, and TMP30, while the final AMP-evolved strains were named COL120, Ind120, Omi120, Pex120, PGLA120, Pleu120, R8120, SAAP120, LI120, and SLAP120.
as §1

[3] = tested on: KAN80 (evolved MG1655); conditions: broth microdilution; kanamycin-evolved strain
Source text: as §2, §1

[4] = tested on: DOX120 (evolved MG1655); conditions: broth microdilution; doxycycline-evolved strain
Source text: as §2, §1

[5] = tested on: TMP30 (evolved MG1655); conditions: broth microdilution; trimethoprim-evolved strain
Source text: as §2, §1

[6] = tested on: CHL80 (evolved MG1655); conditions: broth microdilution; chloramphenicol-evolved strain
Source text: as §2, §1

[7] = tested on: AZI120 (evolved MG1655); conditions: broth microdilution; azithromycin-evolved strain
Source text: as §2, §1

[8] = tested on: COL120 (evolved MG1655); conditions: broth microdilution; colistin-evolved strain
Source text: as §2, §1

[9] = tested on: NIT70 (evolved MG1655); conditions: broth microdilution; nitrofurantoin-evolved strain
Source text: as §2, §1

[10] = tested on: CIP120 (evolved MG1655); conditions: broth microdilution; ciprofloxacin-evolved strain
Source text: as §2, §1

Row | Compound | MIC of MG1655 under the pressure of the same drug, generation 20 [1] | MIC of MG1655 under the pressure of the same drug, generation 30 [1] | MIC of MG1655 under the pressure of the same drug, generation 40 [1] | MIC of MG1655 under the pressure of the same drug, generation 50 [1] | MIC of MG1655 under the pressure of the same drug, generation 60 [1] | MIC of MG1655 under the pressure of the same drug, generation 70 [1] | MIC of MG1655 under the pressure of the same drug, generation 80 [1] | MIC of MG1655 under the pressure of the same drug, generation 90 [1] | MIC of MG1655 under the pressure of the same drug, generation 100 [1] | MIC of MG1655 under the pressure of the same drug, generation 110 [1] | MIC of MG1655 under the pressure of the same drug, generation 120 [1] | MIC of MG1655 under the pressure of the same drug, generation primary [1] | MIC of MG1655 under the pressure of the same drug, generation 10 [1] | MIC values of evolved MG1655, strain AMP120 [2] | MIC values of evolved MG1655, strain KAN80 [3] | MIC values of evolved MG1655, strain DOX120 [4] | MIC values of evolved MG1655, strain TMP30 [5] | MIC values of evolved MG1655, strain CHL80 [6] | MIC values of evolved MG1655, strain AZI120 [7] | MIC values of evolved MG1655, strain COL120 [8] | also measured
1 | CC(C)C[C@H](NC(=O)[C@H](Cc1ccc(O)cc1)NC(=O)[C@H](Cc1c[nH]cn1)NC(=O)[C@@H](NC(=O)[C@H](CC(C)C)NC(=O)[C@H](C)NC(=O)[C@H](C)NC(=O)[C@H](CCCCN)NC(=O)CNC(=O)[C@@H](NC(=O)[C@H](Cc1c[nH]cn1)NC(=O)[C@H](CCCCN)NC(=O)CNC(=O)[C@@H](NC(=O)[C@H](Cc1c[nH]cn1)NC(=O)[C@H](C)NC(=O)[C@H](C)NC(=O)[C@H](CCCCN)NC(=O)[C@H](CCCCN)NC(=O)[C@H](Cc1ccccc1)NC(=O)[C@H](Cc1ccccc1)NC(=O)[C@H](CO)NC(=O)CNC(=O)[C@H](Cc1c[nH]c2ccccc12)NC(=O)CN)C(C)C)C(C)C)[C@@H](C)O)C(=O)O [Pleu, Pleurocidin] (H-GWGSFFKKAAHVGKHVGKAALTHYL-OH) | 2 µg/mL | 2 µg/mL | 2 µg/mL | 2 µg/mL | 2 µg/mL | 2 µg/mL | 2 µg/mL | 2 µg/mL | 2 µg/mL | 2 µg/mL | 2 µg/mL | 2 µg/mL | 2 µg/mL | 1 µg/mL | 1 µg/mL | 1 µg/mL | 1 µg/mL | 1 µg/mL | 1 µg/mL | 1 µg/mL | MIC values of evolved MG1655, strain NIT70 [9]: 1 µg/mL; MIC values of evolved MG1655, strain CIP120 [10]: 1 µg/mL
2 | CC(C)C[C@H](NC(=O)[C@H](CCCCN)NC(=O)[C@H](Cc1ccccc1)NC(=O)[C@@H](NC(=O)[C@H](CCCCN)NC(=O)CNC(=O)[C@H](CC(C)C)NC(=O)[C@@H](N)Cc1ccccc1)C(C)C)C(=O)N[C@@H](C)C(=O)N[C@@H](CO)C(=O)N[C@@H](CCCCN)C(=O)N[C@H](C(=O)N[C@@H](Cc1ccccc1)C(=O)N[C@@H](CCCCN)C(=O)N[C@@H](C)C(=O)N[C@H](C(=O)N[C@@H](Cc1ccccc1)C(=O)NCC(=O)N[C@@H](CCCCN)C(=O)N[C@H](C(=O)O)C(C)C)C(C)C)C(C)C [R8] (H-FLGKVFKLASKVFKAVFGKV-OH) | 4 µg/mL | 4 µg/mL | 4 µg/mL | 4 µg/mL | 4 µg/mL | 4 µg/mL | 4 µg/mL | 4 µg/mL | 4 µg/mL | 8 µg/mL | 8 µg/mL | 4 µg/mL | 4 µg/mL | 4 µg/mL | 4 µg/mL | 8 µg/mL | 8 µg/mL | 8 µg/mL | 8 µg/mL | 4 µg/mL | MIC values of evolved MG1655, strain NIT70 [9]: 8 µg/mL; MIC values of evolved MG1655, strain CIP120 [10]: 8 µg/mL
3 | AC-Dab-Ile-Dab-Ile-Dab-D-Phe-Leu-Dab-D-Val-Leu-Ala-NH2 [SLAP, SLAP-S25, short-linear AMP] | 8 µg/mL | 8 µg/mL | 8 µg/mL | 16 µg/mL | 16 µg/mL | 16 µg/mL | 32 µg/mL | 32 µg/mL | 32 µg/mL | 64 µg/mL | 64 µg/mL | 4 µg/mL | 4 µg/mL | 1 µg/mL | 2 µg/mL | 2 µg/mL | 4 µg/mL | 2 µg/mL | 32 µg/mL | 8 µg/mL | evolution of resistance in MG1655 (in words) ([1]; MG1655, sub-inhibitory drug in MH broth over 60 days): marginal increase in resistance; collateral sensitivity of AMP120 (fold change of MIC vs wild-type MG1655) ([2]; MIC of AMP120 compared with MG1655): exceeding fourfold; MIC values of evolved MG1655, strain NIT70 [9]: 2 µg/mL; MIC values of evolved MG1655, strain CIP120 [10]: 2 µg/mL

— article PMC11915801, “Evolutionary trajectory of bacterial resistance to antibiotics and antimicrobial peptides in Escherichia coli” (mSystems, 2025)
